Values joined by “and” are separate entries in the source; they are usually repeats but may differ in a detail not shown here. Identical values can stand only once.

This passage reports IC50 results from BindingDB's records for doi:10.1111/cbdd.12779 (Ferdowsi University of Mashhad, 2016).

For this experiment, the target named is T1, Seed linoleate 13S-lipoxygenase-1 (Glycine max, UniProt P08170).
T1 sequence (P08170 whole entry): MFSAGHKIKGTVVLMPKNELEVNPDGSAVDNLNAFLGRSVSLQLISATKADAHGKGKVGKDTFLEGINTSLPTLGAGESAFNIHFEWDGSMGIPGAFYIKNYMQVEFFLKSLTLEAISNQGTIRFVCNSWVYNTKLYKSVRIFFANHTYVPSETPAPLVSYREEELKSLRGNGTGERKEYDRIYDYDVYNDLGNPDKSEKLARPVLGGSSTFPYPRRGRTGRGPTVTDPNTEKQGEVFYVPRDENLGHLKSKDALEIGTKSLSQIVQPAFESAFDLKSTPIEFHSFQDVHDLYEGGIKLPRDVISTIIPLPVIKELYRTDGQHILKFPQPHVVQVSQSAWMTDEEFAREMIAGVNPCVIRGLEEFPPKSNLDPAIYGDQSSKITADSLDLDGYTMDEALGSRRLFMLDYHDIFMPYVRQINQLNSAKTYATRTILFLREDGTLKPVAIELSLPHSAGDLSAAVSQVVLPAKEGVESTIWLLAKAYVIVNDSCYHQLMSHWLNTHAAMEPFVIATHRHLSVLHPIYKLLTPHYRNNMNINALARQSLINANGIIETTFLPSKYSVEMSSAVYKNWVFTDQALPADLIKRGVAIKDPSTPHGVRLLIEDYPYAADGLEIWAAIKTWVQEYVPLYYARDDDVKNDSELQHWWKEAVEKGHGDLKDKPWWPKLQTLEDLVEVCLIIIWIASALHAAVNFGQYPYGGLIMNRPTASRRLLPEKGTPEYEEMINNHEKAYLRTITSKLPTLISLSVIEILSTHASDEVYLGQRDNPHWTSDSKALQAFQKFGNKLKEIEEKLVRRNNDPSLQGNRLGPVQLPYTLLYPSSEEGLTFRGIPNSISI
Kind of experiment: Lipo-oxygenase Inhibitory Assay. Particulars: pH 7; 25 °C. As for the experimental part: Solution A was 50 mm DMAB in an 100 mm phosphate buffer (pH 7.0). Solution B was a mixture of 10 mm MBTH (3 mL) and hemoglobin (5 mg/mL, 3 mL) in 50 mm phosphatebuffer at pH 5.0 (25 mL). A linoleic acid solution was prepared by mixing 5 mg of linoleic acid with 50 mg Tween-20 in 3 mL water and then diluted with KOH 100 mmto a final volume of 5 mL. In the standard assay, the sample in ethanol (25 uL), SLO (EC 1,13,11,12; 4000 units/mL; 25 uL) and phosphate buffer, pH 7.0 (50 mm; 900 uL), were mixed in a test-tube and preincubation was carried out for 5 min at room temperature. A control test was done with the same volume of ethanol. Afterthe preincubation, linoleic acid solution (50 uL) was added to start the peroxidation reaction, and, 7 min later, solution A (270 uL) and then solution B (130 uL) were added to start the color formation. Further, 5 min later, 200 uL of a 2% SDS solution was added to terminate the reaction.
Take `C=CCc1cccc(OC)c1OC` [1,2-dimethoxy-3-(prop-2-en-1-yl)benzene (3)]: half-maximal inhibition (IC50) was put at 128 µM.

In turn, `COc1cc(C)cc(OC)c1CC=C(C)C` [1,3-Dimethoxy-5-methyl-2-(3-methylbut-2-en-1-yl)benzene (9)] displayed an IC50 of 7.6 µM.

Consider `COc1cc(C)cc(OC)c1C/C=C(\C)CC/C=C(\C)CCC=C(C)C` [1,3-Dimethoxy-5-methyl-2-((2E,6E)-3,7,11-trimethyldodeca-2,6,10-trien-1-yl)benzene (11)], for which the half-maximal inhibitory concentration (IC50) stood at 0.52 µM. This IC50 lies about 15-fold lower than the previous one.

As for `C=CCc1ccc(OC)cc1OC` [1-Allyl-2,4-dimethoxybenzene (5)], the 50% inhibitory concentration (IC50) was 31.4 µM and 103 µM.

Take `C=CCc1cc(OC)cc(OC)c1` [1-Allyl-3,5-dimethoxybenzene (2)]: the 50% inhibitory concentration (IC50) is 43.2 µM.

On to `C=CCc1c(OC)cc(OC)cc1OC` [2-Allyl-1,3,5-trimethoxybenzene (7)], for which half-maximal inhibition (IC50) required 83.2 µM. Compared with the last compound, the IC50 is about 1.9-fold higher.

Regarding `C=CCc1c(OC)cc(C)cc1OC` [2-Allyl-1,3-dimethoxy-5-methylbenzene (8)], the IC50 is 30.5 µM.

Regarding `C=CCc1c(OC)cccc1OC` [2-Allyl-1,3-dimethoxybenzene (6)], 53.2 µM corresponded to half-maximal inhibition (IC50).

In the case of `Cc1nc(N2CCN(C)CC2)nc2c1Nc1ccccc1S2` [4-MMPB], 22.6 µM corresponded to half-maximal inhibition (IC50). Compared with the last compound, the IC50 is about 2.4-fold lower.

Consider `COc1cc(C)cc(OC)c1C/C=C(\C)CCC=C(C)C` [(E)-2-(3,7-Dimethylocta-2,6-dien-1-yl)-1,3-dimethoxy-5-methylbenzene (10)], for which the IC50 was found to be 5.3 µM.

`C=CCc1ccc(OC)c(OC)c1` [METHYLEUGENOL] had an IC50 of 33.3 µM. This IC50 lies about 6.3-fold higher than the previous one.

A word on the IC50: it is the concentration at which inhibition is half-maximal.
